Measured values: paper PMC4404410, “Crystal structure of X‐prolyl aminopeptidase fromCaenorhabditis elegans: A cytosolic enzyme with a di‐nuclear active site” (FEBS Open Bio, 2015)
“And” between values parts separate entries of the source, which are not always exact repeats. Equal values may be shown once.

T1: C. elegans APP-1 (X-prolyl aminopeptidase, aminopeptidase P1) (Caenorhabditis elegans, UniProt O44750)
T1 construct: full length (residues 1-616), N-terminal His-tag kept, pET19b, E. coli BL21 Star (DE3); homodimer, monomer 71977 Da by MS; two Zn2+ per monomer in crystal
T1 sequence (O44750 1-616): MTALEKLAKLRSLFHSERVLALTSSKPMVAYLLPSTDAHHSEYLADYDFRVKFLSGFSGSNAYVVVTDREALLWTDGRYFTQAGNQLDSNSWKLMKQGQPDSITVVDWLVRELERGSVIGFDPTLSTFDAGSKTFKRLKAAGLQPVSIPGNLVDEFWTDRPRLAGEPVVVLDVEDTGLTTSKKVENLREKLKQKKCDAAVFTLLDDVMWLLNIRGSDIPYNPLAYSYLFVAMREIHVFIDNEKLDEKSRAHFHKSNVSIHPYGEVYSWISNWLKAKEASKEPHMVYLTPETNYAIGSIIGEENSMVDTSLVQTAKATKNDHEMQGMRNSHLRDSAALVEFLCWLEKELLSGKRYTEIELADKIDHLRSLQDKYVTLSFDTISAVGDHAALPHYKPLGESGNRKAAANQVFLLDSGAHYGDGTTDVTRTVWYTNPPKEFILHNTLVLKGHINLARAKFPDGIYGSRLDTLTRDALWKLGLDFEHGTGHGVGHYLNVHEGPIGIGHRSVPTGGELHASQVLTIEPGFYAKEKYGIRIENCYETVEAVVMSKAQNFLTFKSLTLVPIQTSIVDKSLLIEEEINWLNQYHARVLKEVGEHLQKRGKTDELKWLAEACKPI


Tests used:
[1] = target: T1, C. elegans APP-1 (X-prolyl aminopeptidase, aminopeptidase P1); assay: HPLC assay of bradykinin cleavage ([…] nm); assay type: biochemical
[2] = target: the molecule itself; assay: AUC; sedimentation velocity; 0.3 mg/ml APP-1 dialysed against 10 mM Tris/HCl pH 7.5, 150 mM KCl; 40,000 rpm, 20 °C; Rayleigh interference and absorbance at 275 nm

Molecule | inhibition at 10 µM [1] | stoichiometry N [2]
C[C@H](NC(=O)[C@@H]1CCCN1C(=O)[C@@H]1CCCN1C(=O)[C@@H](O)[C@H](N)Cc1ccccc1)C(N)=O [apstatin] | 92% | 
Caenorhabditis elegans aminopeptidase P1 (APP-1), recombinant, His-tagged (enzyme, C. elegans, UniProt O44750 1-616, looked up, Aminopeptidase P1 (APP-1, X-prolyl aminopeptidase), C. elegans, cytosolic; cDNA amplified with primers from the start codon to the stop codon; residues 1-616 (N-terminal domain 1-163, middle domain 164-318, C-terminal domain 319-616); N-terminal His tag and linker come from pET19b and were not removed; Mass spectrometry fits the His-tagged protein after removal of the start methionine (calculated …)) MTALEKLAKLRSLFHSERVLALTSSKPMVAYLLPSTDAHHSEYLADYDFRVKFLSGFSGSNAYVVVTDREALLWTDGRYFTQAGNQLDSNSWKLMKQGQPDSITVVDWLVRELERGSVIGFDPTLSTFDAGSKTFKRLKAAGLQPVSIPGNLVDEFWTDRPRLAGEPVVVLDVEDTGLTTSKKVENLREKLKQKKCDAAVFTLLDDVMWLLNIRGSDIPYNPLAYSYLFVAMREIHVFIDNEKLDEKSRAHFHKSNVSIHPYGEVYSWISNWLKAKEASKEPHMVYLTPETNYAIGSIIGEENSMVDTSLVQTAKATKNDHEMQGMRNSHLRDSAALVEFLCWLEKELLSGKRYTEIELADKIDHLRSLQDKYVTLSFDTISAVGDHAALPHYKPLGESGNRKAAANQVFLLDSGAHYGDGTTDVTRTVWYTNPPKEFILHNTLVLKGHINLARAKFPDGIYGSRLDTLTRDALWKLGLDFEHGTGHGVGHYLNVHEGPIGIGHRSVPTGGELHASQVLTIEPGFYAKEKYGIRIENCYETVEAVVMSKAQNFLTFKSLTLVPIQTSIVDKSLLIEEEINWLNQYHARVLKEVGEHLQKRGKTDELKWLAEACKPI |  | 2 and 4
